The target in the experiment is T1, Mitogen-activated protein kinase kinase kinase 5 (Homo sapiens, UniProt Q99683).
T1 sequence (Q99683 whole entry): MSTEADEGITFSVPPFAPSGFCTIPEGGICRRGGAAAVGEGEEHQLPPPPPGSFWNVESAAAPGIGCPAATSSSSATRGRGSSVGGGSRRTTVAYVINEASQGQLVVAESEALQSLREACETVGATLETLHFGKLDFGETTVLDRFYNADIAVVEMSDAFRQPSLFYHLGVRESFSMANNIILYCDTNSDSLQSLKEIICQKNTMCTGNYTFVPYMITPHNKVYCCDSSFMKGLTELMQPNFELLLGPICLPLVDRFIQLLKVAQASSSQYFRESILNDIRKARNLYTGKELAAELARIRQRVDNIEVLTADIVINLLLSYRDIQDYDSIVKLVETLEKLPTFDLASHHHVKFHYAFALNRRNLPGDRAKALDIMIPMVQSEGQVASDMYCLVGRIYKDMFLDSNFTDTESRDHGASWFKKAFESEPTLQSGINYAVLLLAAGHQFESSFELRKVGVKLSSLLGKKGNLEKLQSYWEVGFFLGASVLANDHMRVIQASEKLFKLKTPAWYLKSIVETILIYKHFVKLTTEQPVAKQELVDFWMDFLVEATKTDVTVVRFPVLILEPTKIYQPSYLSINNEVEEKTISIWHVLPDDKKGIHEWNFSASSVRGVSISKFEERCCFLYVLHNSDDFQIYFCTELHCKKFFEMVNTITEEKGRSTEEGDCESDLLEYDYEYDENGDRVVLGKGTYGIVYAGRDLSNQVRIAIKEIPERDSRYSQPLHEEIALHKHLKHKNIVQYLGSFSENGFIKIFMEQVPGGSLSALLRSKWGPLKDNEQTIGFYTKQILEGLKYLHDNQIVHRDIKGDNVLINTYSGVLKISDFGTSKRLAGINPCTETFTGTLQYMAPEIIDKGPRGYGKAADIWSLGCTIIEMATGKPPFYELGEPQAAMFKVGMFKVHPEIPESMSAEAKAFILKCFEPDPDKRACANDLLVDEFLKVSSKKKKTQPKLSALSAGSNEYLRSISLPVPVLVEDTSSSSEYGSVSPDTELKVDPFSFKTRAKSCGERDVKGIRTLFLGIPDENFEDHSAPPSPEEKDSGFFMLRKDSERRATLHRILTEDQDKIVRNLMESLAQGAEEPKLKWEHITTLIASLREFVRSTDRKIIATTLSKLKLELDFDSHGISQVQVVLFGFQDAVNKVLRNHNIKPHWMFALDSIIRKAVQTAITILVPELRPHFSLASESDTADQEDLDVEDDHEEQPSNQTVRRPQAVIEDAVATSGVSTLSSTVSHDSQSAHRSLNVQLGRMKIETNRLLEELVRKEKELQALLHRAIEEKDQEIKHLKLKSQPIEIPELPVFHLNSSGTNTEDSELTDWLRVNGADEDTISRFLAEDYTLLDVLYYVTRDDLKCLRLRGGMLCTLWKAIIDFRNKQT
In words: Biochemical Assay: The binding of compounds to ASK1 were determined using DiscoverX's proprietary technology. […] The assay is performed by combining three components: DNA-tagged ASK1 kinase; immobilized ligand; and a test compound. The ability of the test compound to compete with the immobilized ligand is measured via quantitative PCR of the DNA tag. […] The liganded beads were blocked with excess biotin and washed with blocking buffer (SeaBlock (Pierce), 1% BSA, 0.05% Tween 20, 1 mM DTT) to remove unbound ligand and to reduce nonspecific binding. […] Kds were determined using an 11-point 3-fold compound dilution series with three DMSO control points. […] The compounds were then diluted directly into the assays such that the final concentration of DMSO was 0.9%. All reactions were performed in polypropylene 384-well plate. […] The kinase concentration in the eluates was measured by qPCR. Most Kds were determined using a compound top concentration=30,000 nM. On the technique in general: Real-time PCR tracks product formation cycle by cycle.

Data on two molecules can be found in ChEMBL document CHEMBL5728524, “Apoptosis signal-regulating kinase inhibitors and uses thereof” (2021).

For orientation: Kd means the constant that tells how readily two partners part at equilibrium. As for `O=C1Nc2cccc(n2)-c2nncn2CCCCOc2ccc(-c3ccc(CCF)nc3)cc21`, the Kd is below 100 nM. For the molecule `Cc1ncc(-c2ccc3c(c2)C(=O)Nc2cccc(n2)-c2nncn2CCCCO3)cc1F`, the Kd is below 100 nM.
